Results on two compounds are retold here after US12653800B2, “Small molecule inhibitors of TLR2 signaling” (University of Maryland, Baltimore, priority 2015, dated 2026).

Holding throughout (assay type): cell-based
Assay [1] addresses TLR2/1 (Mus musculus, UniProt Q9QUN7). The assay can be described thus: Cytokine mRNA/protein in murine peritoneal macrophages stimulated with TLR2/1 agonists (P3C, LTA SA).
The target in assay [2] is TLR2/6 (Mus musculus, UniProt Q9QUN7). The assay can be described thus: Cytokine mRNA in murine peritoneal macrophages stimulated with TLR2/6 agonists (P2C, zymosan).
The target in assay [3] is T1, TLR4 (Mus musculus, UniProt Q9QUK6).
T1 sequence (Q9QUK6 26-835): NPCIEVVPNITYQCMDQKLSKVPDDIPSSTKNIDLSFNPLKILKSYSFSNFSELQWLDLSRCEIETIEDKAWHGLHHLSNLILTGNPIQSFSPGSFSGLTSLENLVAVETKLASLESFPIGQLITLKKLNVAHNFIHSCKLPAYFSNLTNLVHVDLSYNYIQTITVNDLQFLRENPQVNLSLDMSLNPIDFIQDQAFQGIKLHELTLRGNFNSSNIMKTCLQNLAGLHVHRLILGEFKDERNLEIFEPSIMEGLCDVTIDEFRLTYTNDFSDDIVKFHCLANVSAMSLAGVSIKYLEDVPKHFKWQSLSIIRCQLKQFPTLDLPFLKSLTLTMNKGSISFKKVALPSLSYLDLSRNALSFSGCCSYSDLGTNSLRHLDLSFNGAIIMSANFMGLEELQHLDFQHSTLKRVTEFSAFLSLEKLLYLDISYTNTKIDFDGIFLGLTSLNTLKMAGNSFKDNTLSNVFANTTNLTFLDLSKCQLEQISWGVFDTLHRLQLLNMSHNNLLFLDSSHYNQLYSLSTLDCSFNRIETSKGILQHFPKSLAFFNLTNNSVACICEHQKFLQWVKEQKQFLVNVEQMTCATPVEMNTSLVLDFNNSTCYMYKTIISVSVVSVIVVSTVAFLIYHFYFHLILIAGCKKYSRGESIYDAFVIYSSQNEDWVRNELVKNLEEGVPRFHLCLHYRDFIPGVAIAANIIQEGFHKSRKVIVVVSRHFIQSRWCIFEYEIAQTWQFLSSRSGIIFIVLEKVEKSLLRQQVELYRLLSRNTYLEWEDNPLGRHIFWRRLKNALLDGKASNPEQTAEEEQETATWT
T1 sequence (Q9JHF9 19-160 partner): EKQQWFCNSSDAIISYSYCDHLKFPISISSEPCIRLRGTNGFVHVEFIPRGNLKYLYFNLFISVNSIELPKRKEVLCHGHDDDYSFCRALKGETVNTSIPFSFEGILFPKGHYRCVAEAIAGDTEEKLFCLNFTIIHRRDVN
The assay can be described thus: Cytokine mRNA in murine peritoneal macrophages stimulated with TLR4 agonists (LPS, HKEC).

Assay [4] deals with T2, TLR2/1 (Homo sapiens, UniProt O60603). The assay can be described thus: P3C-induced IL-8 mRNA (qRT-PCR) in HEK-TLR2 stable transfectants. Set-up: expressed in transfected cells. The conditions noted are these: for percent inhibition, TLR2/1 versus TLR2/6 stimulation: HEK-TLR2 cells, human TLR2 signaling. On the technique in general: In qPCR the cycle at which signal appears reflects the starting amount.

For assay [5], the target named is T2, TLR2/1. Nature of the assay: NF-κβ (ELAM)-luciferase reporter assay in transiently transfected HEK293T cells, P3C. Set-up: expressed in transfected cells; host or cells: HEK293T, transient transfection (Superfect). The conditions noted are these: P3C 50 ng/mL 5 hrs; for IC50: NF-κβ reporter assay in HEK293T cells, 1 μM-250 μM, read-out: IC50 for human TLR2/1 signaling. As for the experimental part:
(§1) FIG. 8. C29 inhibits hTLR2/1- and hTLR2/6-induced NF-κβ activation. (A, B) HEK293T cells were transiently transfected with reporter constructs for ELAM-luciferase, Renilla-luciferase, and either pcDNA3.1 or pcDNA3-YFP-hTLR2. Cells were pretreated for 1 hr with media, vehicle (65 μM NaOH), or C29 (50 μM) and treated with P3C or P2C (50 ng/mL) for 5 hrs in the presence of media, vehicle, or C29. Lysates were prepared and the dual-luciferase assay performed. Results are representative of 3 independent experiments each carried out in duplicate (**, p≤0.01; ***, p≤0.001).
(§2) FIG. 9. C29 is species-specific and blocks human TLR2/6 signaling, but not murine TLR2/6 signaling. (A-D) HEK293T cells were transiently transfected with reporter constructs for ELAM-luciferase, Renilla-luciferase, and pcDNA3.1 in combination with/without pcDNA3-YFP-hTLR2, pFLAG-CMV1-hTLR1, pcDNA3-CFP-hTLR6, pcDNA3.1-mTLR2-CFP, pcDNA3.1-mTLR1-YFP, or pcDNA3.1-mTLR6-CFP. Cells were pretreated for 1 hr with media, vehicle (65 μM NaOH), or C29 (50 μM) and then treated with P3C or P2C (50 ng/mL) for 5 hrs in the presence of media, vehicle, or C29. Lysates were prepared and the dual-luciferase assay performed. Panels A and B represent the mean±SEM from 3 independent experiments and panels C and D represent the mean±SEM from 2 independent experiments each carried out in duplicate (*, p≤0.05; **, p≤0.01).
FIG. 12. C29 L blocks human TLR2/1 and TLR2/6 signaling comparably to C29 in HEK293T cells. (A-D) HEK293T cells were transiently transfected with reporter constructs for ELAM-luciferase, Renilla-luciferase, and pcDNA3-YFP-hTLR2. Cells were pretreated for 1 hr with C29 or C29L (1 μM-250 μM) and treated with P3C or P2C (50 ng/mL) for 5 hrs in the presence of C29 or C29L. […]
HEK293T cells were cultured and plated overnight in 12-well tissue culture plates (2×10^5 cells/well). […] Cells were lysed in a passive lysis buffer (Promega, Madison, WI) and firefly luciferase and Renilla luciferase activities were measured using the dual luciferase reporter assay system (Promega, Madison, WI). […]
Background: Reporter assays use an easily measured gene product as a stand-in for the process of interest.

Assay [6] has as its target TLR2/6 (Homo sapiens, UniProt O60603). The assay can be described thus: NF-κβ (ELAM)-luciferase reporter assay in transiently transfected HEK293T cells, P2C. Set-up: expressed in transfected cells; host or cells: HEK293T, transient transfection (Superfect). The settings on record: P2C 50 ng/mL 5 hrs; for IC50: NF-κβ reporter assay in HEK293T cells, 1 μM-250 μM, read-out: IC50 for human TLR2/6 signaling. The procedure:
as §1, §2
FIG. 12. C29 L blocks human TLR2/1 and TLR2/6 signaling comparably to C29 in HEK293T cells. (A-D) HEK293T cells were transiently transfected with reporter constructs for ELAM-luciferase, Renilla-luciferase, and pcDNA3-YFP-hTLR2. Cells were pretreated for 1 hr with C29 or C29L (1 μM-250 μM) and treated with P3C or P2C (50 ng/mL) for 5 hrs in the presence of C29 or C29L. Lysates were prepared and dual-luciferase assay performed. Data is representative of 2 independent experiments each carried out in duplicate.
HEK293T cells were cultured and plated overnight in 12-well tissue culture plates (2×10^5 cells/well). Transfection mixtures consisted of pcDNA3-YFP-hTLR2 or pcDNA3.1 control vector (1 μg/well each), pELAM (NF-κB)-luciferase (0.2 μg/well), and pRL-TK-Renilla luciferase (0.05 μg/well). Transfection was carried out using Superfect transfection reagent, cells were recovered for 48 h, and treated for 5 h with medium or stimuli in the presence/absence of C29. Cells were lysed in a passive lysis buffer (Promega, Madison, WI) and firefly luciferase and Renilla luciferase activities were measured using the dual luciferase reporter assay system (Promega, Madison, WI). […]

[7] abbreviates: HEK293T expressing human TLR2, C29 50 μM.

T2 sequence (O60603 21-784): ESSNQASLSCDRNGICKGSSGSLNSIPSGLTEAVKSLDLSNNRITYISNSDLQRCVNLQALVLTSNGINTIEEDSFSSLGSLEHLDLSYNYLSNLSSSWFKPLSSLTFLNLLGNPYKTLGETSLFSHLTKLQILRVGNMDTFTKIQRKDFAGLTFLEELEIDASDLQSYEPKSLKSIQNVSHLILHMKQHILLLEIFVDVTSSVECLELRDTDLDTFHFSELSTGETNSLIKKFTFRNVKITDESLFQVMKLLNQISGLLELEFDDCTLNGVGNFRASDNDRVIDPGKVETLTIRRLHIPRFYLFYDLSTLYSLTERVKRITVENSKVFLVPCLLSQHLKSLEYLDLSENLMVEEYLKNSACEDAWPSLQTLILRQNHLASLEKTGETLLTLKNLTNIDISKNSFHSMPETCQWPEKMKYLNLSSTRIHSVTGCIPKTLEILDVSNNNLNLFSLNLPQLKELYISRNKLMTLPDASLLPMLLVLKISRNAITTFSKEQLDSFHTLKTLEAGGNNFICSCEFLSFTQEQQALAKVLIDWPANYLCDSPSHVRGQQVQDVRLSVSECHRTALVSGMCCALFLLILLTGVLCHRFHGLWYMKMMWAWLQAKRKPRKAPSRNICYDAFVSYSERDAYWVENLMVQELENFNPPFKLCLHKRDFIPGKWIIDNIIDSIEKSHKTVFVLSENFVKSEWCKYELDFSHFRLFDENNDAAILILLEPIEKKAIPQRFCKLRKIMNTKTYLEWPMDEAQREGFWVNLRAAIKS
Chain of TLR2/6 (Homo sapiens, UniProt O60603) (O60603 21-784): as above
Chain of TLR2/1 (Mus musculus, UniProt Q9QUN7) (Q9QUN7 25-784): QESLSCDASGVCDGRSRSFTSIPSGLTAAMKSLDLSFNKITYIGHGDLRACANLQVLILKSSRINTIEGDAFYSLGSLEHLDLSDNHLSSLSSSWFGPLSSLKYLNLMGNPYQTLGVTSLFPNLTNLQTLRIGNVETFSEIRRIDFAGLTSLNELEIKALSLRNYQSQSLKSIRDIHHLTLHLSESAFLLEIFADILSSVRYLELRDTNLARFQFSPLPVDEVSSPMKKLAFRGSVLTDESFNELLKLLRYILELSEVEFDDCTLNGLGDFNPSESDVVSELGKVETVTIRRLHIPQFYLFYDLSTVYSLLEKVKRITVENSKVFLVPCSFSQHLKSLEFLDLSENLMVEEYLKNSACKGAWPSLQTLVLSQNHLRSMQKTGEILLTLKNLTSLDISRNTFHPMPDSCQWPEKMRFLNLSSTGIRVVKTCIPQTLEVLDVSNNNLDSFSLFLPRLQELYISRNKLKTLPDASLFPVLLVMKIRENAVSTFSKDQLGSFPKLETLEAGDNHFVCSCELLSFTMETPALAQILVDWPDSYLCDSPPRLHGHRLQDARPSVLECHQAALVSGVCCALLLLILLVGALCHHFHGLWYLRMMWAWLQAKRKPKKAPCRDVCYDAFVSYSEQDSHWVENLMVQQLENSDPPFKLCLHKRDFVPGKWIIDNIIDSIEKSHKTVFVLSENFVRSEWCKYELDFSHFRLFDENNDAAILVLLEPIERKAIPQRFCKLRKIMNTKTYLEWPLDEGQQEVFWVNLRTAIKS
Chain of TLR2/6 (Mus musculus, UniProt Q9QUN7) (Q9QUN7 25-784): as above

Take `COc1cccc(C=O)c1O` [Compound C29L, ortho-vanillin]: the “TLR2/1-induced TNF-α gene expression” value in assay [1] (murine macrophages, 25 μM or 50 μM, P3C 50 ng/mL 1 hr) was “dose-dependently inhibited”. In addition, the “TLR2/6 signaling pathway (TNF-α mRNA)” value in assay [2] (25 μM or 50 μM, P2C 100 ng/mL 1 hr) is “no effect”. Further, the “TLR4 signaling pathway (TNF-α mRNA)” value in assay [3] (25 μM or 50 μM, LPS 100 ng/mL 1 hr) is “no effect”. Moreover, the “percent inhibition, TLR2/1 versus TLR2/6 stimulation” value in assay [4] is recorded as “consistently greater when TLR2/1 is stimulated”. In addition, the IC50 worked out at 24.2 µM in assay [5] and 37.2 µM in assay [6].
For the compound `COc1cccc(/C=N/c2cccc(C(=O)O)c2C)c1O` [Compound C29], in assay [1] (murine macrophages, C29 50 μM, P3C 50 ng/mL 3 hrs), the “P3C-induced IL-1β mRNA” value is “specifically blocked”. The “LTA SA-induced IL-1β mRNA” value in assay [1] (murine macrophages, C29 50 μM, S. aureus LTA 1 μg/mL 3 hrs) was “specifically blocked”. For the same compound, the “P3C-induced TNF-α mRNA” value in assay [1] (murine peritoneal macrophages, C29 25 μM or 50 μM, P3C 50 ng/mL 1 hr) was “significantly reduced”. For the same compound, the “P3C-induced IL-12 p40 protein (ELISA)” value in assay [1] (murine peritoneal macrophages, C29 50 μM, P3C 50 ng/mL 4 or 6 hrs) is “significantly reduced”. Besides, the “zymosan-induced IL-1β mRNA” value in assay [2] (C29 50 μM, zymosan 10 μg/mL 3 hrs) is reported as “did not inhibit”. The “heat-killed Escherichia coli (HKEC)-induced IL-1β mRNA” value in assay [3] (C29 50 μM, MOI=0.1, 4 hrs, signals predominately through TLR4) was “not blocked”. Further, in assay [4] (C29 10 μM or 50 μM, P3C 200 ng/mL 1 hr, HEK-TLR2 stable transfectants), the “P3C-induced IL-8 mRNA” value was “blocked P3C- and P2C-induced IL-8 mRNA dose-dependently”. The “percent inhibition, TLR2/1 versus TLR2/6 stimulation” value in assay [4] was “consistently greater when TLR2/1 is stimulated”. Also, in assay [5] (setting [7]), the “P3C-induced NF-κβ-luciferase activity” value was “inhibited”. Moreover, the IC50 in assay [5] was 19.7 µM; in assay [6] it was 37.6 µM. The “P2C-induced NF-κβ-luciferase activity” value in assay [6] (setting [7]) was “inhibited”. Also, in assay [6] (HEK293T transfected with human TLR2 and TLR6, C29 50 μM), the “hTLR2/6-induced NF-κβ-luciferase activity” value is listed as “significantly inhibited”.
